# Data: patent publication US20190358247A1 (The Medical College of Wisconsin, Inc., priority 2016, published 2019)
# Several values for one entry are separate records, joined by “and”; a condition that tells them apart may be missing. Equal entries are not always repeated.
# Assays:
# MiaPaCa-2 cells [1] = assay: IncuCyte label-free cell confluence proliferation assay; type: cell-based, human; details: PDAC / MiaPaCa-2, from two independent cell growth assays
# Experimental: Cell proliferation was measured using a label-free, non-invasive cellular confluence assay employing the IncuCyte™ Live-Cell Imaging Analyzer (Essen Bioscience). This system provides real-time cellular confluence data based on segmentation of high definition phase contrast images. […] MiaPaCa2 cells were treated with Met (1 and 2 mM) or Mito-Met-C10 (1-2 μM).
# (§1) IncuCyte Analyzer-real time measurement of cell proliferation. The cell proliferation was measured using a label-free, noninvasive cellular confluence assay by IncuCyte Live-Cell Imaging Systems (Essen Bioscience, Ann Arbor, Mich., USA; IncuCyte FLR). This system enables collection of live cell images at 2 h intervals over several days. The IncuCyte Analyzer provides real-time cellular confluence data based on segmentation of high-definition phase-contrast images. The cell proliferation is expressed as an increase in percentage of cell confluence.
# mitochondrial complex I = mitochondrial complex I (Homo sapiens, UniProt O75251+O75306+P03886); assay: Complex I oxygen consumption (pyruvate/malate) in permeabilized cells, Seahorse XF96; type: cell-based
# Experimental: (§2) Respiratory enzyme activity in intact and permeabilized cells. The mitochondrial function in intact and permeabilized pancreatic cancer cells was measured using a Seahorse XF96 Extracellular Flux Analyzer (Seahorse Bioscience, North Billerica, Mass., USA). Unless specified otherwise, assays in intact cells were performed as previously described. Measurement of mitochondrial respiratory complexes in permeabilized cells was performed according to the manufacturer's instructions (Seahorse Bioscience). Briefly, intact cells were permeabilized using 1 nM Plasma Membrane Permeabilizer (PMP, Seahorse Bioscience) immediately before oxygen consumption rate (OCR) measurement by XF96. The oxygen consumption derived from mitochondrial complex I or complex II activity was measured by providing different substrates to mitochondria, e.g., pyruvate/malate for complex I and succinate for complex II activity. Rotenone, malonate and antimycin A were used as specific inhibitors of mitochondrial complex I, II and III activities, respectively.
# The oxygen consumption rate was measured using the permeabilized MiaPaCa-2 cells in MAS buffer supplemented with pyruvate. The use of permeabilized cells avoids differences in cellular uptake of compounds. […] We tested the effect of pretreating cells with Mito-Met10 or Met using the permeabilized model. MiaPaCa-2 cells were treated with Met and Mito-Met10 for 24 h and the oxygen consumption studies were performed in these cells after permeabilization.
# MiaPaCa-2 cells [2] = assay: Oxygen consumption rate in intact cells, Seahorse XF96; type: cell-based, human; details: for effect on OCR: immediate
# Experimental: as §2
# Effects of Met and Mito-Met analogs on mitochondrial bioenergetics in MiaPaCa-2 cells. The oxygen consumption rate (OCR) and the extracellular acidification rate (ECAR) were measured as a readout of mitochondrial function and glycolysis using a Seahorse Bioscience XF96 extracellular flux analyzer. We compared the immediate OCR changes in response to different concentrations (e.g., IC50 or higher values determined by clonogenic assay) of Met, Mito-Met2, Mito-Met6, Mito-Met10, and phenformin (FIG. 13A).
# Next we monitored the mitochondrial OCR changes in MiaPaCa-2 cells after 24 h treatment with Met, Mito-Met analogs, and phenformin followed by a washout of the treatments and return to fresh cell culture media.
# AMPK = assay: Immunoblot of phosphorylated AMPK Thr-172 relative to total AMPK, FC1199 cells; type: cell-based; details: murine FC1199, 1 μM, 30 min
# Experimental: In this example, the inventors have shown that the mito-met compounds of the present invention cause an increased AMPK activation in cancer cells. In preliminary experiments (FIG. 4), human MiaPaCa2 and murine FC1199 PDAC cells treated 30 min with 1 μM mito-met (MM), 1 mM Met, or the oligomycin positive control were lysed, and proteins size-separated on SDS-PAGE, transferred to PVDF, and probed with an antibody to phosphorylated AMPK Thr-172.
# Immunoblotting. MiaPaCa-2 PDAC cells (1×10^6) were plated to 80% confluency in 60 mm dishes and then serum-starved for 5 hours. […] Cells were stimulated with oligomycin as a positive control. After stimulation, cells were washed twice in cold PBS and lysed using a modified RIPA buffer. Lysates were normalized for protein concentration, size separated using reducing SDS-PAGE, electro-transferred to PVDF membranes (Millipore) and then probed using primary and horseradish peroxidase-conjugated secondary antibodies. Antibodies against total or phosphorylated 5′ AMP-activated protein kinase (AMPK) were purchased from Cell Signaling Technology (Danvers, Mass.) and used at the manufacturer's recommended dilutions. Proteins were visualized by chemiluminescence with auto-exposure and quantified by densitometric analysis using the FluorChem HD2 from Cell Biosciences (Santa Clara, Calif.).
# AMPK activation in Mito-Met and Met-treated PDAC cells. […]
# MCF-10A cells = assay: Radiosensitization, clonogenic survival after X-radiation, normal cells; type: cell-based; details: 1 μM, 24 h pretreatment
# Experimental: Radiation experiments. […] The cells were then treated with X-radiation at a dose of 0, 2, 4, and 6 Gy. The control cells were treated with the same concentration of vehicle (0.1% DMSO) where appropriate. After irradiation, cells were suspended and seeded at various densities (100-8,000 cells per well) in 6-well plates for clonogenic assay as described above. The plates were kept within the incubator and media changed every 3-4 days for 2 weeks. Wells with 10-50 sufficiently large clones were chosen for calculating the cell survival fractions.
# Effect of Mito-Met and Met on PDAC radiosensitivity. Both control cells and cells were pretreated for 24 h with 1 mM Met or Mito-Met (1 μM) prior to X-radiation. Cell survival was measured by a clonogenic assay.
# MCF-10A = assay: IncuCyte cell confluence assay, nonmalignant breast epithelial cells; type: cell-based
# Experimental: as §1
# MiaPaCa-2 cells [3] = assay: Intracellular uptake by LC-MS/MS
# Experimental: Cells were grown on 10 cm dishes and treated with the compounds for 24 h in full media.
# Next we investigated the relative uptake of different Mito-Met analogs (Mito-Met2, Mito-Met6, and Mito-Met10) and phenformin in MiaPaCa-2 cells (FIG. 12D). Cells were treated with respective Mito-Met analog (1 μM) for 1 h. Cells were lysed after washing and analyzed for Mito-Met analog by LC-MS.
# Chain of mitochondrial complex I (O75306 34-463): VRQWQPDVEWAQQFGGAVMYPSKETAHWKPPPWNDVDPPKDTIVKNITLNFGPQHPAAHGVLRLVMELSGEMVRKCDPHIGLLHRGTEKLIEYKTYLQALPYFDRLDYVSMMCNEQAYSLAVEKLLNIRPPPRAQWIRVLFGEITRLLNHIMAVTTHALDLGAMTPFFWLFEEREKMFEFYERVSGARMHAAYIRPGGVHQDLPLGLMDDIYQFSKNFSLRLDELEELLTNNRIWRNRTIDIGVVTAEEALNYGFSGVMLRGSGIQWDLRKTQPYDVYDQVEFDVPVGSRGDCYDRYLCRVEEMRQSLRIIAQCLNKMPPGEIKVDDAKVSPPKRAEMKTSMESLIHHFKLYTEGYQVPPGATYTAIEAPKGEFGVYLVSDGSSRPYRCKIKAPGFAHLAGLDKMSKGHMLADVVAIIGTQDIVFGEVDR
# Chain of mitochondrial complex I (O75251 39-213): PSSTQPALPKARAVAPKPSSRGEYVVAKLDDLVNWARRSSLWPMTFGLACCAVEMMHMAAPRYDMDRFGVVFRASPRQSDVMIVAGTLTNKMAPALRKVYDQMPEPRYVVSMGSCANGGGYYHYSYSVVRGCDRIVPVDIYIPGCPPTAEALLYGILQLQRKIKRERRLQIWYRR
# Chain of mitochondrial complex I (P03886 whole entry): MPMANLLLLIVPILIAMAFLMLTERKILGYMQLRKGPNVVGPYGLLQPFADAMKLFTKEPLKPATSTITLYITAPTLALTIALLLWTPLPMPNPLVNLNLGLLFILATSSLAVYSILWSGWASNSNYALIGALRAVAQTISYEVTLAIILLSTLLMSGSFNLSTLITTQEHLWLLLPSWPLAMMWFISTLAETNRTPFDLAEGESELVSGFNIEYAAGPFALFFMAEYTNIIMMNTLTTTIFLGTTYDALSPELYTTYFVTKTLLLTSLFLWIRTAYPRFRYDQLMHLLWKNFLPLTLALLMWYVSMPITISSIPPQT
# Chain of mitochondrial complex I (O75489 37-264, further chain): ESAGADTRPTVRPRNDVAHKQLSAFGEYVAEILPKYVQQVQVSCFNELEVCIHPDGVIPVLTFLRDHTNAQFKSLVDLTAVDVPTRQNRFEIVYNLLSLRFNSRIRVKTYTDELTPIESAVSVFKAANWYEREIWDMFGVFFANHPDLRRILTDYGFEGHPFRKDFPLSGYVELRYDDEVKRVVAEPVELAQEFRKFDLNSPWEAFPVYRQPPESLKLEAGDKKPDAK
# Chain of mitochondrial complex I (P03897 whole entry, further chain): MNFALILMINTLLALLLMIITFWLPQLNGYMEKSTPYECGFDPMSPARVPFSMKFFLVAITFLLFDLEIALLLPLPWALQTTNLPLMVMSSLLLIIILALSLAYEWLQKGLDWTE
smiles,measurement,setting,value
Br.N=C(N)NC(=N)NCCCCCCCCCC[P+](c1ccccc1)(c1ccccc1)c1ccccc1 [Mito-Met10],fold more effective than metformin in inhibiting cell proliferation,MiaPaCa-2 cells [1],"~1,000 fold and > 1,000 fold"
same,fold more effective than metformin in inhibiting cell proliferation,MiaPaCa-2 cells [1]; listed as mito-met-C10,"~1,000 fold"
same,concentration giving significant decrease in OCR (complex I inhibition),"mitochondrial complex I; 24 h treatment, then permeabilized",0.75 µM
same,fold more effective than Met in inhibiting complex I-mediated oxygen consumption,mitochondrial complex I; MiaPaCa-2,"2,000 fold"
same,IC50,"mitochondrial complex I; read-out: IC50, mitochondrial complex I-mediated oxygen consumption, MiaPaCa-2, 24 h pretreatment, then permeabilized",400 nM and ~430 nM
same,concentration at which OCR was inhibited,"MiaPaCa-2 cells [2]; 24 h treatment, washout",1 µM
same,effect on OCR,MiaPaCa-2 cells [2]; 1 μM,did not inhibit OCR
same,effect on OCR,MiaPaCa-2 cells [2]; ≈10 μM,slight inhibition
same,increase in active AMPK (phosphorylated relative to total protein),AMPK,1.5-2.5 fold
same,radiosensitivity in normal cells,MCF-10A cells,no radiosensitivity was observed
same,effect on cell confluence,MCF-10A,not significantly affected
same,"difference in intracellular uptake and retention, MiaPaCa-2 and MCF-10A cells",MiaPaCa-2 cells [3]; LC-MS,four-fold
same,cellular uptake relative to phenformin,"MiaPaCa-2 cells [3]; MiaPaCa-2, LC-MS",~100 fold
